pIC50: −log10 of the molar value.
Tested on: not given
Test: not given
Conditions: concentration up to 200 μM; cited from earlier work

Compound	cytotoxicity
Brc1cccc(C2NCCc3c2[nH]c2ccccc32)c1 (stereo not shown) [Compound 1]	not cytotoxic
O=[N+]([O-])c1cccc(C2NCCc3c2[nH]c2ccccc32)c1 (stereo not shown) [Compound 2]	not cytotoxic

Target: T1, sodium iodide symporter (NIS) (Rattus norvegicus, UniProt Q63008)
T1 construct: The biological activity of each compound was determined in FRTL5 cells, using a 24-well plate format radioiodide uptake assay; endogenous in cells; host or cells: FRTL5 (rat thyroid-derived cells)
T1 sequence (Q63008 1-618): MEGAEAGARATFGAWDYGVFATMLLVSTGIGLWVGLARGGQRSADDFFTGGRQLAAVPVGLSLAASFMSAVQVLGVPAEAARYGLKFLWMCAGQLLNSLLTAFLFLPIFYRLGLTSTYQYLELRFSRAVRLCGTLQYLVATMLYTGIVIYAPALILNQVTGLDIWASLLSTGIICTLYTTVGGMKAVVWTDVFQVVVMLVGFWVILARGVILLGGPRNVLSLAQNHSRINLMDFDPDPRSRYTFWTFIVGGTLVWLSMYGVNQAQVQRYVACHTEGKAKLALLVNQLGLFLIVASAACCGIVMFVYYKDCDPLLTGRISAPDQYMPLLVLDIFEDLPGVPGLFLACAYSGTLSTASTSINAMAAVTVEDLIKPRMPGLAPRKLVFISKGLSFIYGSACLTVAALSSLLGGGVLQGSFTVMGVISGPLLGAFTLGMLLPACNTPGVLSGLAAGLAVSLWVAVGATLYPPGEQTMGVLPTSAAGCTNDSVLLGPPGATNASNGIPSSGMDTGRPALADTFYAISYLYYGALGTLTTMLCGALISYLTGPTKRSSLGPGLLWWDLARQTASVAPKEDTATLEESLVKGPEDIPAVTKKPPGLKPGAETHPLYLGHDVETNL
Test: not given
Conditions: rat thyroid-derived cells (FRTL5); F. Waltz et al. 2010; read-out: IC50 competitive inhibition of iodide transport in FRTL5; cited from earlier work

Compound	pIC50
F[B-](F)(F)F [BF4^−]	6.12
[O-][Cl+3]([O-])([O-])O [ClO4^−]	6.85
O=[N+]([O-])O [NO3^−]	3.60
F[P-](F)(F)(F)(F)F [PF6^−]	8.05

Target: T1, sodium iodide symporter (NIS)
Test: radioiodide uptake assay in FRTL5 cells (24-well plate)
Assay type: cell-based
Conditions: 60 min, NaI 10 μM, averaged from two to four independent experiments, read-out: IC50 against iodide uptake in FRTL5 cells
Procedure: In the framework of the invention, the NIS inhibitor is evaluated as follow: rat thyroid-derived cells (FRTL5 cells expressing NIS) are incubated during 1 h with iode and 125-I as a tracer, and in the presence of various concentration of compound. For each tested concentration of compound, the amount of iodide inside the cells is quantified by radioactive counting. The half-maximum inhibitory concentration (IC50) is evaluated for each compound by regression analysis (to the Hill equation) from dose-response data. A detailed protocol is provided in the experimental section, and also in N. Lecat-Guillet et al., ChemMedChem, 2008.
The synthesized compounds were evaluated for their ability to inhibit iodide entrapment in FRTL5 cells using a rodiodide uptake assay. The IC50 values were measured in at least two independent experiments.
The biological activity of each compound was determined in FRTL5 cells, using a 24-well plate format radioiodide uptake assay. Each experiment was run in quadruplicate and at least twice independently. Compound potency was expressed as IC50, the concentration of compound necessary to achieve 50% inhibition of iodide uptake. NaClO4 and the Compound 2 were tested as assay controls.
FRTL5 cells were cultured in Coon's modified F12 medium supplemented with 5% heat-inactivated fetal bovine serum (Invitrogen), 2 mM L-glutamine, 100 U/mL penicillin, 0.1 mg/mL streptomycin, 10 μg/mL insulin, 10 nM hydrocortisone, 10 ng/mL Gly-His-Lys acetate, 1 mU/mL TSH, 5 μg/mL transferrin at 37° C. and 5% CO2. For iodide uptake assays, 1.25 mL of FRTL5 cells with density of 250,000 cells/mL were dispensed in each well of clear flat-bottomed 24-well polystyrene microplates (BD Falcon 3047), and further cultured until confluence reached 70-90% (3-4 days).
Prepare ˜1.5 mL/plate of an intermediate “10-fold” radioiodide uptake buffer solution: NaI (100 μM) and [125-I]-NaI (20 μCi/mL) in uptake buffer (HBSS/Hepes).
For each concentration of compound tested, prepare ˜2.5 mL of compound solutions in uptake buffer (HBSS/Hepes 10 mM) at 1.12 fold the final concentration, so that 450 μL of this solution plus 50 μL of radioiodide uptake buffer makes the desired final concentration (NaI 10 μM final, 1 μCi/well).
The procedure is performed at 20±2° C. in a well ventilated hood. Culture medium of FRTL5 cells is removed by aspiration. Compound solutions are added to the 24-well plate in quadruplicate (450 μL/well) immediately followed by [125I]-NaI radioiodide uptake buffer (50 μL/well, 10 μM final, 1 μCi/well). The 24-well plate is left to stand for 60 min. Radioactive supernatants are removed by aspiration and the cell are washed twice with 500 μL of cold uptake buffer (HBSS/Hepes at 4° C.). Finally, the residual supernatant is removed by aspiration and 500 μL of lysis buffer (SDS 0.1%, triton 0.5%) is added to each well. The 24-well plate is gently agitated for 60-120 min. The radioactive cell lysates are collected and placed into scintillation vials. Scintillation cocktail (Ultima gold LLT, Perkin Elmer) is added to each vial (4 mL) and the radioactivity is measured (Wallac 1409). For IC50 determination, mean DPM values were fitted by non-linear regression (least square) to the four-parameter sigmoidal Hill equation.
IC50 values are averaged from two to four independent experiments. A standard deviation of 2-fold was judged acceptable. NaClO4 and Compound 2 were tested as assay controls.

Compound	pIC50
O=[N+]([O-])c1cccc(C2OCCc3c2[nH]c2ccccc32)c1 (stereo not shown) [Compound 4, 1-(3-nitrophenyl)-1,3,4,9-tetrahydropyrano[3,4-b]indole]	8.28
O=[N+]([O-])c1cccc(C2NCCc3c2oc2ccccc32)c1 (stereo not shown) [Compound 5, 1-(3-nitrophenyl)-1,2,3,4-tetrahydro[1]benzofuro[2,3-c]pyridine]	6.70
O=[N+]([O-])c1cccc(C2SCCc3c2[nH]c2ccccc32)c1 (stereo not shown) [Compound 6, 1-(3-nitrophenyl)-1,3,4,9-tetrahydrathiopyrano[3,4-b]indole]	6.85
Fc1ccc(F)c(C2OCCc3c2[nH]c2ccccc32)c1 (stereo not shown) [Compound 7, 1-(2,5-difluorophenyl)-1,3,4,9-tetrahydropyrano[3,4-b]indole]	6.77
c1cc2c(c(C3OCCc4c3[nH]c3ccccc43)c1)OCO2 (stereo not shown) [Compound 8, 1-(benzo[d][1,3]dioxol-4-yl)-1,3,4,9-tetrahydropyrano[3,4-b]indole]	9.39
Clc1cccc(C2OCCc3c2[nH]c2ccccc32)c1 (stereo not shown) [Compound 9, 1-(3-chlorophenyl)-1,3,4,9-tetrahydropyrano[3,4-b]indole]	6.85
COc1ccc(F)c(C2OCCc3c2[nH]c2ccccc32)c1 (stereo not shown) [Compound 10, 1-(2-fluoro-5-methoxyphenyl)-1,3,4,9-tetrahydropyrano[3,4-b]indole]	7.24
Brc1cccc(C2OCCc3c2[nH]c2ccccc32)c1 (stereo not shown) [Compound 11, 1-(3-bromophenyl)-1,3,4,9-tetrahydropyrano[3,4-b]indole]	6.77
Fc1ccc(C2OCCc3c2[nH]c2ccccc32)cc1Cl (stereo not shown) [Compound 12, 1-(3-chloro-4-fluorophenyl)-1,3,4,9-tetrahydropyrano[3,4-b]indole]	6.70
Nc1cccc(C2OCCc3c2[nH]c2ccccc32)c1 (stereo not shown) [Compound 13, 1-(3-aminophenyl)-1,3,4,9-tetrahydropyrano[3,4-b]indole]	8.96

From patent US20150299218A1, “Heterocyclic Compounds As Inhibitors Of The Sodium Iodide Symporter” (COMMISSARIAT A L'ENERGIE ATOMIQUE ET AUX ENERGIES …, priority 2012, published 2015)
